According to patent US6949647B2, “Synthesis of pancratistatin” (Arizona Board of Regents, priority 2000, dated 2005):
Converted amounts (≈) assume the structure as drawn. Structures can show the parent of a compound that is named as a salt. Where two headings read alike, the source gives them in different places.

Columns and labels:
[1] = tested on: NCI-H460; experiment: Human cancer cell line growth inhibition, lung-NSC NCI-H460; settings: for TGI: total growth inhibition
[2] = tested on: Ovcar-3; experiment: Human cancer cell line growth inhibition, ovarian Ovcar-3; settings: for TGI: total growth inhibition
[3] = tested on: BXPC-3; experiment: Human cancer cell line growth inhibition, pancreas-a BXPC-3; settings: for TGI: total growth inhibition
[4] = tested on: P388; experiment: Murine lymphocytic leukemia P388 cell line inhibition
[5] = tested on: DU-145; experiment: Human cancer cell line growth inhibition, prostate DU-145; settings: for TGI: total growth inhibition
[6] = tested on: KM20L2; experiment: Human cancer cell line growth inhibition, colon KM20L2; settings: for TGI: total growth inhibition
[7] = tested on: SF-295; experiment: Human cancer cell line growth inhibition, CNS SF-295; settings: for TGI: total growth inhibition

Structure (SMILES)	GI50 ([1]; Homo sapiens, NCI-H460)	TGI ([1]; Lung-NSC NCI-H460)	GI50 ([2]; Homo sapiens, OVCAR-3)	TGI ([2]; Ovarian Ovcar-3)	GI50 ([3]; Homo sapiens, BXPC-3)	TGI ([3]; Pancreas-a BXPC-3)	ED50 ([4]; Murine leukemia P388)	GI50 ([5]; Homo sapiens, DU-145)	TGI ([5]; Prostate DU-145)	TGI ([6]; Colon KM20L2)	GI50 ([6]; Homo sapiens, KM-20L2)	TGI ([7]; CNS SF-295)	GI50 ([7]; Homo sapiens, SF-295)	GI50 ([1]; Lung-NSC NCI-H460)	GI50 ([2]; Ovarian Ovcar-3)	GI50 ([3]; Pancreas-a BXPC-3)	GI50 ([5]; Prostate DU-145)	GI50 ([6]; Colon KM20L2)	GI50 ([7]; CNS SF-295)	ED50 [4]
O=C1N[C@H]2[C@H](O)[C@H](O)[C@@H](O)[C@H](O)[C@@H]2c2cc3c(c(O)c21)OCO3 [Compound 1a, (+)-Pancratistatin]	0.048 µg/mL (≈ 0.148 µM)	0.43 µg/mL (≈ 1.32 µM)	0.032 µg/mL (≈ 0.0984 µM)	0.11 µg/mL (≈ 0.338 µM)	0.028 µg/mL (≈ 0.0861 µM)	0.14 µg/mL (≈ 0.43 µM)	0.032 µg/mL (≈ 0.0984 µM)	0.016 µg/mL (≈ 0.0492 µM)	0.1 µg/mL (≈ 0.307 µM)	0.23 µg/mL (≈ 0.707 µM)	0.026 µg/mL (≈ 0.0799 µM)	0.091 µg/mL (≈ 0.28 µM)	0.017 µg/mL (≈ 0.0523 µM)	–	–	–	–	–	–	–
O=C1N[C@@H]2C(=C[C@H](O)[C@@H](O)[C@H]2O)c2cc3c(c(O)c21)OCO3 [Compound 2, (+)-narciclasine, reference compound]	–	0.1 µg/mL (≈ 0.325 µM)	–	0.044 µg/mL (≈ 0.143 µM)	–	0.045 µg/mL (≈ 0.146 µM)	0.0044 µg/mL (≈ 0.0143 µM)	–	0.036 µg/mL (≈ 0.117 µM)	0.012 µg/mL (≈ 0.0391 µM)	–	0.049 µg/mL (≈ 0.159 µM)	–	0.022 µg/mL (≈ 0.0716 µM)	0.016 µg/mL (≈ 0.0521 µM)	0.016 µg/mL (≈ 0.0521 µM)	0.0071 µg/mL (≈ 0.0231 µM)	0.018 µg/mL (≈ 0.0586 µM)	0.012 µg/mL (≈ 0.0391 µM)	–
CC1(C)O[C@@H]2[C@H](O1)[C@@H](O)C=C1c3cc4c(c(O)c3C(=O)N[C@H]12)OCO4 [Compound 3, Narciclasine 3,4-acetonide]	> 10 µg/mL	>10 µg/mL	> 10 µg/mL	>10 µg/mL	> 10 µg/mL	>10 µg/mL	>10 µg/mL	> 10 µg/mL	>10 µg/mL	>10 µg/mL	> 10 µg/mL	>10 µg/mL	> 10 µg/mL	–	–	–	–	–	–	–
CC(=O)Oc1c2c(cc3c1C(=O)NC1C3=CC(OC(C)=O)C3OC(C)(C)OC13)OCO2 (stereo not shown) [Compound 4, 2,7-Di-acetoxy-narciclasine 3,4-acetonide]	–	>10 µg/mL	–	>10 µg/mL	–	>10 µg/mL	>10 µg/mL	–	>10 µg/mL	>10 µg/mL	–	>10 µg/mL	–	>10 µg/mL	>10 µg/mL	>10 µg/mL	>10 µg/mL	>10 µg/mL	>10 µg/mL	–
CC(=O)OC1C=C2c3cc4c(c(O)c3C(=O)NC2C2OC(C)(C)OC12)OCO4 (stereo not shown) [Compound 5, 2-Acetoxy-narciclasine 3,4-acetonide]	–	>10 µg/mL	–	>10 µg/mL	–	>10 µg/mL	>10 µg/mL	–	>10 µg/mL	>10 µg/mL	–	>10 µg/mL	–	>10 µg/mL	>10 µg/mL	>10 µg/mL	>10 µg/mL	>10 µg/mL	>10 µg/mL	–
CC(=O)Oc1c2c(cc3c1C(=O)NC1C4OC(C)(C)OC4C(OC(C)=O)C4OC314)OCO2 (stereo not drawn) [Compound 6, 1,10b-α-epoxy-2,7-diacetoxy-narciclasine 3,4-acetonide]	–	>10 µg/mL	–	>10 µg/mL	–	>10 µg/mL	>10 µg/mL	–	>10 µg/mL	>10 µg/mL	–	>10 µg/mL	–	>10 µg/mL	>10 µg/mL	>10 µg/mL	>10 µg/mL	>10 µg/mL	>10 µg/mL	–
COC1c2c([nH]c(=O)c3c(O)c4c(cc23)OCO4)C2OC(C)(C)OC2C1O (stereo not shown) [Compound 7, 1-Methoxy-Isonarciclasine 3,4-acetonide]	–	>10 µg/mL	–	>10 µg/mL	–	>10 µg/mL	>10 µg/mL	–	>10 µg/mL	>10 µg/mL	–	>10 µg/mL	–	>10 µg/mL	>10 µg/mL	>10 µg/mL	>10 µg/mL	>10 µg/mL	>10 µg/mL	–
CC1(C)O[C@@H]2[C@@H](O)[C@@H](O)[C@@H]3c4cc5c(c(O)c4C(=O)N[C@H]3[C@@H]2O1)OCO5 [Compound 8, 1-Isopancratistatin 3,4-acetonide]	> 10 µg/mL	>10 µg/mL	5 µg/mL (≈ 13.7 µM)	>10 µg/mL	8.8 µg/mL (≈ 24.1 µM)	>10 µg/mL	2.6 µg/mL (≈ 7.12 µM)	3.8 µg/mL (≈ 10.4 µM)	>10 µg/mL	>10 µg/mL	6.9 µg/mL (≈ 18.9 µM)	>10 µg/mL	7.2 µg/mL (≈ 19.7 µM)	–	–	–	–	–	–	–
CC1(C)O[C@@H]2[C@@H](O)[C@@H](O)[C@H]3c4cc5c(c(O)c4C(=O)N[C@H]3[C@@H]2O1)OCO5 [Compound 9, B/C Cis-1-Isopancratistatin 3,4-acetonide]	–	>10 µg/mL	–	>10 µg/mL	–	>10 µg/mL	>10 µg/mL	–	>10 µg/mL	>10 µg/mL	–	>10 µg/mL	–	>10 µg/mL	>10 µg/mL	>10 µg/mL	>10 µg/mL	>10 µg/mL	>10 µg/mL	–
CC1(C)O[C@@H]2[C@@H](O)[C@H]3OC34c3cc5c(c(O)c3C(=O)N[C@H]4[C@@H]2O1)OCO5 (stereo partly drawn) [Compound 10, 1,10b-α-epoxy-narciclasine 3,4-acetonide]	> 10 µg/mL	>10 µg/mL	> 10 µg/mL	>10 µg/mL	> 10 µg/mL	>10 µg/mL	>10 µg/mL	> 10 µg/mL	>10 µg/mL	>10 µg/mL	> 10 µg/mL	>10 µg/mL	> 10 µg/mL	–	–	–	–	–	–	–
CC1(C)O[C@H]2[C@@H]3NC(=O)c4c(cc5c(c4O)OCO5)[C@H]3C3OS(=O)(=O)O[C@@H]3[C@H]2O1 (stereo partly shown) [Compound 12, 1-Isopancratistatin 1,2 Cyclic Sulfate-3,4-acetonide]	> 10 µg/mL	>10 µg/mL	> 10 µg/mL	>10 µg/mL	> 10 µg/mL	>10 µg/mL	>10 µg/mL	> 10 µg/mL	>10 µg/mL	>10 µg/mL	> 10 µg/mL	>10 µg/mL	> 10 µg/mL	–	–	–	–	–	–	–
O=C(OC1C(O)C(O)C(O)C2NC(=O)c3c(cc4c(c3O)OCO4)C21)c1ccccc1 (stereo not shown) [Compound 13, Pancratistatin 1-Benzoate]	–	–	–	0.0019 µg/mL (≈ 0.00442 µM)	–	0.0053 µg/mL (≈ 0.0123 µM)	–	–	0.0026 µg/mL (≈ 0.00606 µM)	0.0034 µg/mL (≈ 0.00792 µM)	–	0.0049 µg/mL (≈ 0.0114 µM)	–	<0.001 µg/mL	<0.001 µg/mL	0.00094 µg/mL (≈ 0.00219 µM)	–	<0.001 µg/mL	0.0013 µg/mL (≈ 0.00303 µM)	0.0017 µg/mL (≈ 0.00396 µM)
